In experiment [1] the test system is TE10 cells. The experiment can be described thus: CCK8 cell proliferation, TE10. The class given is cell-based. To be noted: compared with the blank control. An excerpt:
(§1) At the same time, BI-D1870 was used as a positive control, and no drug was used as a blank control (Black).
(§2) The growth curve was drawn based on time and absorbance value.

Experiment [2] deals with ECA109 cells. The experiment is described as follows: Transwell migration assay, ECA109. The class given is cell-based. The following applies: compared with the blank control. The procedure: as §1
(§3) • (1) Digest cells. Wash once with PBS, resuspend in serum-free medium, and adjust the cell density to 5×10^5/ml. • (2) Add 500 μl of culture medium containing 10% fetal bovine serum to the lower chamber of the 24-well plate. Take 200 μl of cell suspension and add it to the chamber. Note that there are no bubbles between the chamber and the lower culture medium. • (3) Culture routinely for 16-24 h. • (4) Aspirate the culture medium in the chamber, fix the cells in the chamber with anhydrous methanol for 15 min, and rinse with PBS. • (5) Color: Add Gumsa staining solution to the 24-well plate, immerse the membrane in the staining solution for 20 min, and wash with PBS. • (6) Carefully wipe off the cells on the inner layer of the membrane with a cotton swab and air-dry the membrane. • (7) Take pictures under a microscope, count 5 high-power fields, and take the average value.

Experiment [3] has as its system TE10 cells. The experiment can be described thus: Transwell migration assay, TE10. The class given is cell-based. To be noted: compared with the blank control. The procedure: as §1, §3
Experiment [4] concerns ECA109 cells. The experiment is described as follows: CCK8 cell proliferation, ECA109. The class given is cell-based. To be noted: compared with the blank control.
Excerpt: as §1, §2

Another experiment deals with KYSE450/AR. The experiment is described as follows: CCK8 proliferation of afatinib-resistant strain KYSE450/AR. The class given is cell-based. To be noted: FIG. 10. The method, then: (§4) The CCK-8 cell proliferation kit of Shanghai Taoshu Biotechnology Co., Ltd. was used. • (1) Cell suspension was inoculated in a 96-well plate, 100 μL per well, 2,000 cells per well. • (2) Culture or give drugs according to experimental needs, and treat for an appropriate time. • (3) Add 10 μL of CCK-8 solution to each well and incubate at 37° C. • (4) The absorbance value was determined by selecting a wavelength of 450 nm on the microplate reader. The growth curve was drawn based on time and absorbance value.
The expression level of EGFR and the sensitivity to icotinib and afatinib in various ESCC cell lines (T1, T10, T11, KYSE150, KYSE450, ECA109, EC9706) were detected. The cell line KYSE450 with high EGFR expression and sensitivity to afatinib (low IC50) was selected. The icotinib and afatinib drug concentration increasing mode of action was used to induce KYSE450 cells to produce drug resistance, and a stable cell line resistant to icotinib and afatinib was obtained. The optimal drug concentration gradient for inducing afatinib obtained from the literature reports and the preliminary experiments before formal induction culture was: 100 nM, 300 nM, 500 nM, 800 nM, 1 μM and 5 μM. The initial induction dose of this experiment was 100 nM, and the highest induction dose was 5 μM. During the induction period, the culture medium containing icotinib and afatinib was replaced every 2 days. […]

The next experiment has as its system KYSE450-IR. The experiment is described as follows: CCK8 proliferation of icotinib-resistant strain KYSE450-IR. It is filed as cell-based. To be noted: for proliferation of KYSE450-IR: 2 μm, CCK8, DMSO blank control. The method, then:
as §4
The expression level of EGFR and the sensitivity to icotinib and afatinib in various ESCC cell lines (T1, T10, T11, KYSE150, KYSE450, ECA109, EC9706) were detected. The cell line KYSE450 with high EGFR expression and sensitivity to afatinib (low IC50) was selected. The icotinib and afatinib drug concentration increasing mode of action was used to induce KYSE450 cells to produce drug resistance, and a stable cell line resistant to icotinib and afatinib was obtained. The optimal drug concentration gradient for inducing afatinib obtained from the literature reports and the preliminary experiments before formal induction culture was: 100 nM, 300 nM, 500 nM, 800 nM, 1 μM and 5 μM. The initial induction dose of this experiment was 100 nM, and the highest induction dose was 5 μM. During the induction period, the culture medium containing icotinib and afatinib was replaced every 2 days. When the initial induction dose was induced for two weeks and the cell growth was stable, the drug induction dose began to be doubled, and each dose was maintained for 14 days before reaching the highest induction dose. The drug-resistant cells obtained after 10 months of induction culture were named KYSE450/IR KYSE450/AR cell lines.

The test system of experiment [5] is RSK4 downstream substrates (P-RPS6, P-GSK3β). The experiment is described as follows: Western blot of phosphorylation level of RSK4 downstream substrates. It is filed as cell-based. The following applies: TE10, ECA109 cells. The procedure: Western blot was used to detect the effect of phosphorylation level of RSK4 downstream substrates.
(1) Protein extraction, using Kangwei Century RIPA lysis buffer. Place the cell culture flask on ice for 20 minutes, shake it back and forth, and blow it with a pipette. Scrape the cells with a cell scraper, transfer them to an EP tube, and centrifuge them at 4° C. 10-20 μl can be aspirated for protein quantification. Add loading buffer, boil for 5 min, centrifuge at 12000 rpm for 5 min, and store in an ultra-low temperature refrigerator. Tissue protein extraction: Grind in liquid nitrogen, transfer to EP tube after melting, lyse on ice for 20 min, and centrifuge at 4° C.
(2) Protein quantification, use the Kangwei Century BCA quantification kit. Make two replicate wells for each sample, take the average value to make a standard curve and calculate the sample concentration.
(3) Protein electrophoresis, use the Kangwei Century SDS-PAGE gel preparation kit. The separation gel concentration is 8%, and the concentration gel concentration is 5%. The separation gel is 1.5 cm away from the upper edge of the front glass plate and filled with water to seal the gel. Use filter paper to absorb the water sealing liquid, fill the concentrated gel, and insert the comb. The voltage is 100V constant for 1 h30 min until the bromophenol blue runs out and stops electrophoresis.
(4) Transfer to membrane, soak the gel, filter paper, and sponge pad in 4° C. pre-cooled transfer buffer for 10 min, soak the PVDF membrane with methanol for 5 min, and transfer it to the transfer buffer for 10 min after it is fully wetted. Installation The order of transfer clips: black plate, sponge, 3 layers of filter paper, gel, membrane, 3 layers of filter paper, sponge, white plate. Expel bubbles at each step and place the membrane in one go. […]
(8) Luminescence: Use the Kangwei Century Chemiluminescence Detection Kit and scan the detection results with a chemiluminescence imager.
(9) Use Photoshop software to perform semi-quantitative grayscale analysis of the image and calculate the relative expression of the protein.
(A western blot detects proteins with antibodies after separation by electrophoresis.)

For the next experiment, the system named is LLC (Lewis lung cancer). The experiment is described as follows: LLC (Lewis lung cancer) transplant tumor model. The class given is in vivo, C57BL/6 mice. The following applies: Selonsertib 15 mg/kg per day i.p.; Anti-PD1 50 μg/kg once every two days; 20 days. The procedure: (§5) • (1) B16F10 (melanoma) and LLC (Lewis lung cancer) transplant tumor models were constructed in 6-8 week old C57BL/6 mice, with 6 mice in each group. Each mouse was subcutaneously injected with about 1×10^6 B16F10 cells and 5×10^6 LLC cells dissolved in 200 μl sterile PBS. • (2) When the tumor volume reached 150 mm^3, the mice were divided into groups and treated differently. […] The Anti-PD1 used in this experiment was specifically In VivoPlus anti-mouse PD-1 (CD279). • (3) The experimental observation time lasted for 10 days (melanoma) or 20 days (Lewis lung cancer). If the mice were infected or in poor condition, they were treated in time. During the period, the tumor volume was measured every 2 days, and the volume calculation formula was length×width 2×0.5. • (4) At the end of the experiment, the mice were killed, the subcutaneous tumors were removed, photographed, weighed, and counted.

In a further experiment the test system is B16F10 (melanoma). The experiment can be described thus: B16F10 (melanoma) transplant tumor model. It is filed as in vivo, C57BL/6 mice. To be noted: Selonsertib 15 mg/kg per day i.p.; Anti-PD1 50 μg/kg once every two days; 10 days. The method, then: as §5
A further experiment relates to ESCC cells. The experiment can be described thus: Nude mouse tumor formation experiment, esophageal squamous cell carcinoma. It is filed as in vivo, BALB/c nude mice. To be noted: intraperitoneally 15 mg/kg or 30 mg/kg per day; 20 days. The procedure:
• (1) Nude mouse tumor formation experiment was performed on 4-6 week old female BALB/c nude mice, with 5 nude mice in each group. Each mouse was subcutaneously injected with about 1×10^6 ESCC cells dissolved in 200 μl sterile PBS. • (2) When the tumor volume reached 150 mm^3, the mice were divided into groups and treated differently. […] If the mice were infected or in poor condition, they were treated in time. During this period, the tumor volume was measured every 3-5 days, and the volume calculation formula was length×width 2×0.5. • (4) At the end of the experiment, the mice were killed, the subcutaneous tumors were removed, photographed, weighed, and counted.

As for `CC(C)CCN1c2nc(Nc3cc(F)c(O)c(F)c3)ncc2N(C)C(=O)C1C` (stereo not shown) [BI-D1870], the “proliferation of TE10” value with TE10 cells [1] is listed as “can inhibit”. Also, the “migration of ECA109” value in the experiment on ECA109 cells [2] is recorded as “can inhibit”. For the same molecule, the “migration of TE10” value in the experiment with TE10 cells [3] is on record as “can inhibit”. Moreover, the “proliferation of ECA109” value in the experiment with ECA109 cells [4] was “can inhibit”.

As to `Cc1cc(F)c(C(=O)Nc2cccc(-c3nncn3C(C)C)n2)cc1-n1cnc(C2CC2)c1` [Selonsertib, 5-(4-cyclopropyl-1H-imidazol-1-yl)-2-fluoro-N-(6-(4-isopropyl-4H-1,2,4-triazol-3-yl)pyridine-2-yl)-4-methylbenzamide], the KYSE450/AR proliferation entry with KYSE450/AR (2 μm, CCK8) was “basically consistent with those of KYSE450-IR”. The “resistance of esophageal squamous cell carcinoma to afatinib” value in the experiment on KYSE450/AR is on record as “reverses the resistance”. In addition, the “proliferation of TE10” value with TE10 cells [1] is listed as “can inhibit”. Also, the “migration of ECA109” value in the experiment on ECA109 cells [2] is “can inhibit”. The “proliferation of KYSE450-IR” value in the experiment with KYSE450-IR is recorded as “can inhibit”. Moreover, the “resistance of esophageal squamous cell carcinoma to icotinib” value in the experiment with KYSE450-IR (FIG. 9) is “reverses the resistance”. In [5], the “expression of P-GSK3β (ser9)” value is listed as “downregulate” and the “expression of P-RPS6 (S235/S236)” value was “downregulate”. Besides, the “phosphorylation of RSK4 downstream substrates” value in [5] (different concentrations) was “could inhibit”. In addition, the “migration of TE10” value in the experiment with TE10 cells [3] is given as “can inhibit”. Further, in the experiment with ECA109 cells [4], the “proliferation of ECA109” value was “can inhibit”. The “proliferation of Lewis lung cancer (tumor growth)” value in the experiment on LLC (Lewis lung cancer) is reported as “can inhibit”. In addition, the “proliferation of melanoma (tumor growth)” value in the experiment with B16F10 (melanoma) is recorded as “can inhibit”. Further, in the experiment on ESCC cells, the “inhibitory effect on tumor growth compared with the positive control (BI-D1870)” value is reported as “stronger inhibitory effect on tumor growth at a lower dose”.

For `C#Cc1cccc(Nc2ncnc3cc4c(cc23)OCCOCCOCCO4)c1` [icotinib], in the experiment with KYSE450-IR, the “proliferation of KYSE450-IR” value is on record as “extremely low”.

The record behind these values is US20250152570A1 (AIR FORCE MEDICAL UNIVERSITY, priority 2022, published 2025).
